Measured values published in patent US20260174763A1, “PREPARATION METHOD AND USE OF A NOVEL TAXANE-BASED COMPOUND” (Jiangsu Jibeier Pharmaceutical Co., Ltd., priority 2023, published 2026).

Key:
[1] = system: human breast cancer cell line MDA-MB-231; experiment: CTG proliferation inhibition, MDA-MB-231; format: cell-based; conditions: 72 h incubation, read-out: IC50 (nM) of the test compounds for various tumor cell lines
Method: (§1) Testing the inhibition effect of the compounds of Formula (I) and Formula II on the proliferation of various tumor cell lines by CTG method:
(§2) The CellTiter-Glo Luminescent Cell Viability Assay (CTG) method was used to test the inhibition effect of the compounds of Formula (I) and Formula II on the proliferation of various tumor cell lines, and IC50 value was calculated. The tumor cell lines included: human pancreatic cancer cell lines: SW1990, PANC-1, HPAF-II; human gastric cancer cell lines: NCI-N87, MGC-803; human esophageal cancer cell lines: KYSE-150, KYSE-410; human head-and-neck cancer cell lines: C666-1, Fadu; human breast cancer cell line: MDA-MB-231; human lung cancer cell line: A549; human adrenocortical carcinoma cell line: SW-13; human bladder cancer/urothelial carcinoma cell line: BIU-87, totally 13 tumor cell lines.
(§3) Experimental method: cells in logarithmic growth phase were obtained. The cell suspension was added to each well of a 96-well plate, placed in an incubator at 37° C. for overnight incubation. Complete mediums corresponding to each of the tumor cell lines were used to dilute the test compounds of […] and Formula II. The drugs were subjected to gradient dilution according to the following table. Culture medium containing the drug to be tested was added to the 96-well plate. Replicates were provided or each concentration in three wells; and a negative control well not containing the drug to be tested was provided. The 96-well plate was placed in incubator for incubation for 72 h and then added thereto a CTG reagent, with a blank control well provided. The substances in the wells were mixed evenly, and the cells were lysed and incubated at room temperature for 10 min. The […] signal value (Lum) was measured with a microplate reader.
(§4) Data processing and analysis: The software GraphPad Prism 8.0 was used to process the data graphically, calculate IC50, perform four-parameter non-linear regression analysis on the data, and map the corresponding dose-response curve. The equation for calculating cell viability is as below: […]

[2] = system: human lung cancer cell line A549; experiment: CTG proliferation inhibition, A549; format: cell-based; conditions: 72 h incubation, read-out: IC50 (nM) of the test compounds for various tumor cell lines
Method: as §1, §2, §3, §4

[3] = system: human head-and-neck cancer cell line Fadu; experiment: CTG proliferation inhibition, Fadu; format: cell-based; conditions: 72 h incubation, read-out: IC50 (nM) of the test compounds for various tumor cell lines
Method: as §1, §2, §3, §4

[4] = system: human esophageal cancer cell line KYSE-150; experiment: CTG proliferation inhibition, KYSE-150; format: cell-based; conditions: 72 h incubation, read-out: IC50 (nM) of the test compounds for various tumor cell lines
Method: as §1, §2, §3, §4

[5] = system: human bladder cancer/urothelial carcinoma cell line BIU-87; experiment: CTG proliferation inhibition, BIU-87; format: cell-based; conditions: 72 h incubation, read-out: IC50 (nM) of the test compounds for various tumor cell lines
Method: as §1, §2, §3, §4

[6] = system: human pancreatic cancer cell line SW1990; experiment: CTG proliferation inhibition, SW1990; format: cell-based; conditions: 72 h incubation, read-out: IC50 (nM) of the test compounds for various tumor cell lines
Method: as §1, §2, §3, §4

[7] = system: human gastric cancer cell line NCI-N87; experiment: CTG proliferation inhibition, NCI-N87; format: cell-based; conditions: 72 h incubation, read-out: IC50 (nM) of the test compounds for various tumor cell lines
Method: as §1, §2, §3, §4

[8] = system: human pancreatic cancer cell line PANC-1; experiment: CTG proliferation inhibition, PANC-1; format: cell-based; conditions: 72 h incubation, read-out: IC50 (nM) of the test compounds for various tumor cell lines
Method: as §1, §2, §3, §4

[9] = system: human esophageal cancer cell line KYSE-410; experiment: CTG proliferation inhibition, KYSE-410; format: cell-based; conditions: 72 h incubation, read-out: IC50 (nM) of the test compounds for various tumor cell lines
Method: as §1, §2, §3, §4

[10] = system: human head-and-neck cancer cell line C666-1; experiment: CTG proliferation inhibition, C666-1; format: cell-based; conditions: 72 h incubation, read-out: IC50 (nM) of the test compounds for various tumor cell lines
Method: as §1, §2, §3, §4

[11] = system: human pancreatic cancer cell line HPAF-II; experiment: CTG proliferation inhibition, HPAF-II; format: cell-based; conditions: 72 h incubation, read-out: IC50 (nM) of the test compounds for various tumor cell lines
Method: as §1, §2, §3, §4

[12] = system: human adrenocortical carcinoma cell line SW-13; experiment: CTG proliferation inhibition, SW-13; format: cell-based; conditions: 72 h incubation, read-out: IC50 (nM) of the test compounds for various tumor cell lines
Method: as §1, §2, §3, §4

[13] = system: human gastric cancer cell line MGC-803; experiment: CTG proliferation inhibition, MGC-803; format: cell-based; conditions: 72 h incubation, read-out: IC50 (nM) of the test compounds for various tumor cell lines
Method: as §1, §2, §3, §4

[14] = system: advanced breast cancer; conditions: clinical outcome; cited from earlier work
[15] = system: tumor cell; conditions: compared with paclitaxel; cited from earlier work
[16] = system: advanced non-small cell lung cancer; conditions: clinical outcome; cited from earlier work
[17] = system: advanced ovarian cancer; conditions: clinical outcome; cited from earlier work

| Structure (SMILES) | IC50 [1] | IC50 [2] | IC50 [3] | IC50 [4] | IC50 [5] | IC50 [6] | IC50 [7] | IC50 [8] | IC50 [9] | IC50 [10] | IC50 [11] | IC50 [12] | IC50 [13] | effective rate [14] | ability to inhibit cell division relative to paclitaxel [15] | tumor cell proliferation inhibition rate relative to paclitaxel [15] | effective rate [16] | effective rate [17] |
| --- | --- | --- | --- | --- | --- | --- | --- | --- | --- | --- | --- | --- | --- | --- | --- | --- | --- | --- |
| CC(=O)OC12COC1CC(O)C1(C)C(=O)C(OC(=O)Nc3ccc(C(C)O)cc3)C3=C(C)C(OC(=O)C(O)C(NC(=O)OC(C)(C)C)c4ccccc4)CC(O)(C(OC(=O)c4ccccc4)C21)C3(C)C (centres unmarked) [Compound I-1] | 5.46 nM | 41.9 nM | 2.64 nM | 1.99 nM | 12.1 nM | 6.34 nM | 28.2 nM | 2.27 nM | 1.26 nM | 16 nM | 4.45 nM | 1.57 nM | 0.187 nM |  |  |  |  |  |
| CC(=O)OC12COC1CC(O)C1(C)C(=O)C(OC(=O)Nc3ccc(C(C)O)cc3)C3=C(C)C(OC(=O)C(O)C(NC(=O)OC(C)(C)C)c4ccccc4)CC(O)(C(OC(=O)c4ccccc4)C21)C3(C)C (centres unmarked) [Compound I-2] | 0.042 nM | 11.7 nM | 4.15 nM | 1.75 nM | 29.1 nM | 3.1 nM | 7.46 nM | 2.89 nM | 0.101 nM | 7.34 nM | 8.65 nM | 6.12 nM | 3.4 nM |  |  |  |  |  |
| CC(=O)OC12COC1CC(O)C1(C)C(=O)C(OC(=O)Nc3ccc(C(C)O)cc3)C3=C(C)C(OC(=O)C(O)C(NC(=O)OC(C)(C)C)c4ccccc4)CC(O)(C(OC(=O)c4ccccc4)C21)C3(C)C (centres unmarked) [Compound I-3] | 6.61 nM | 25.3 nM | 0.657 nM | 0.376 nM | 0.319 nM | 0.916 nM | 8.3 nM | 0.814 nM | 0.084 nM | 10.5 nM | 2.22 nM | 2.69 nM | 2.08 nM |  |  |  |  |  |
| CC(=O)OC12COC1CC(O)C1(C)C(=O)C(OC(=O)Nc3ccc(C(C)O)cc3)C3=C(C)C(OC(=O)C(O)C(NC(=O)OC(C)(C)C)c4ccccc4)CC(O)(C(OC(=O)c4ccccc4)C21)C3(C)C (centres unmarked) [Compound I-4] | 12.6 nM | 12.4 nM | 8.62 nM | 0.726 nM | 17.5 nM | 6.4 nM | 18.8 nM | 0.549 nM | 0.097 nM | 12.1 nM | 2.18 nM | 9.12 nM | 4.99 nM |  |  |  |  |  |
| CC(=O)OC12COC1CC(O)C1(C)C(=O)C(OC(=O)Nc3ccc(C(C)O)cc3)C3=C(C)C(OC(=O)C(O)C(NC(=O)OC(C)(C)C)c4ccccc4)CC(O)(C(OC(=O)c4ccccc4)C21)C3(C)C (centres unmarked) [Compound I-5] | 2.91 nM | 5.64 nM | 4.76 nM | 0.808 nM | 17.7 nM | 12.7 nM | 11.4 nM | 1.41 nM | 0.016 nM | 3.39 nM | 10.7 nM | 4.75 nM | 0.635 nM |  |  |  |  |  |
| CC(=O)OC12COC1CC(O)C1(C)C(=O)C(OC(=O)Nc3ccc(C(C)O)cc3)C3=C(C)C(OC(=O)C(O)C(NC(=O)OC(C)(C)C)c4ccccc4)CC(O)(C(OC(=O)c4ccccc4)C21)C3(C)C (centres unmarked) [Compound I-6] | 11.7 nM | 18.9 nM | 12.8 nM | 0.123 nM | 30.1 nM | 12.2 nM | 12.9 nM | 0.878 nM | 0.02 nM | 3.03 nM | 11 nM | 8.48 nM | 3.49 nM |  |  |  |  |  |
| CC(=O)OC12COC1CC(O)C1(C)C(=O)C(OC(=O)Nc3ccc(C(C)O)cc3)C3=C(C)C(OC(=O)C(O)C(NC(=O)OC(C)(C)C)c4ccccc4)CC(O)(C(OC(=O)c4ccccc4)C21)C3(C)C (centres unmarked) [Compound I-7] | 13 nM | 60.2 nM | 6.47 nM | 0.972 nM | 10.2 nM | 6.73 nM | 10.9 nM | 0.888 nM | 0.1 nM | 9.19 nM | 3.11 nM | 7.36 nM | 4.93 nM |  |  |  |  |  |
| CC(=O)OC12COC1CC(O)C1(C)C(=O)C(OC(=O)Nc3ccc(C(C)O)cc3)C3=C(C)C(OC(=O)C(O)C(NC(=O)OC(C)(C)C)c4ccccc4)CC(O)(C(OC(=O)c4ccccc4)C21)C3(C)C (centres unmarked) [Compound I-8] | 6.57 nM | 27.1 nM | 9.16 nM | 1.7 nM | 12.7 nM | 14.2 nM | 14.7 nM | 0.007 nM | 0.032 nM | 10.5 nM | 9.05 nM | 10.1 nM | 0.844 nM |  |  |  |  |  |
| CC(=O)OC12COC1CC(O)C1(C)C(=O)C(OC(=O)Nc3ccc(C(C)=O)cc3)C3=C(C)C(OC(=O)C(O)C(NC(=O)OC(C)(C)C)c4ccccc4)CC(O)(C(OC(=O)c4ccccc4)C21)C3(C)C (centres unmarked) [II, reference compound] | 20.9 nM | 60.5 nM | 16.7 nM | 1.9 nM | 30.5 nM | 15.5 nM | 20.8 nM | 3.35 nM | 0.113 nM | 12.8 nM | 12.6 nM | 12.5 nM | 5.34 nM |  |  |  |  |  |
| CC(=O)O[C@@]12CO[C@@H]1C[C@H](O)[C@@]1(C)C(=O)[C@H](O)C3=C(C)[C@@H](OC(=O)[C@H](O)[C@@H](NC(=O)OC(C)(C)C)c4ccccc4)C[C@@](O)([C@@H](OC(=O)c4ccccc4)[C@H]21)C3(C)C [docetaxel, Docetaxel] |  |  |  |  |  |  |  |  |  |  |  |  |  | 60% | twice that of paclitaxel | 10 times | 31% | 30% |
